According to paper PMC3479139, “Diverse Small Molecule Inhibitors of Human Apurinic/Apyrimidinic Endonuclease APE1 Identified from a Screen of a Large Public Collection” (PLoS ONE, 2012):

Key:
APE1 [1] = molecular target: T1, APE1 (Homo sapiens, UniProt P27695); experiment: Fluorogenic kinetic qHTS APE1 incision assay (primary screen and retest of cherrypicked samples); format: biochemical;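 also: purified APE1 cleaving a fluorophore/dark-quencher labelled 17-mer duplex DNA bearing a tetrahydrofuran AP site, fluorescence rise followed kinetically over the first 2 min, inhibition normalized to controls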
T1 construct: made in house
T1 sequence (P27695 whole entry): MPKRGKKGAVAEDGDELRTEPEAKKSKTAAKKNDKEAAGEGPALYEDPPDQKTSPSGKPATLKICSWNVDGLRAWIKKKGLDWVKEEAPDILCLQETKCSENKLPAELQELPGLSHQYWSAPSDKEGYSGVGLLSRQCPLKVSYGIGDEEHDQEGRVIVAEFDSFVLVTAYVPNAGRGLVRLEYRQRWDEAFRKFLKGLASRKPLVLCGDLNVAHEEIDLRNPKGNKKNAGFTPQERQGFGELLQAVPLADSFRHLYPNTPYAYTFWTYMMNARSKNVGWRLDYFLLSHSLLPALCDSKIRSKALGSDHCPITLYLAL

APE1 [2] = molecular target: T1, APE1; experiment: Gel-based radiotracer (32P) APE1 incision assay; format: biochemical; parameters: concentration or dose not given beside the values; conditions: percent incision shown; entries 1-112;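 also: APE1 incision reactions ran 5 min at 37 °C, with cleaved product and intact substrate resolved electrophoretically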
APE1 [3] = molecular target: T1, APE1; experiment: Fluorescence polarization (FP) displacement assay of APE1 binding to AP-DNA probe; conditions: read-out: FP IC50;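 also: TAMRA 5′-labeled duplex DNA with THF abasic site (5 nM) and APE1 (20 nM), Mg2+-free buffer, 15 min at room temperature, inhibition seen as lowered polarization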
[4] = molecular target: double-stranded 17-mer DNA fragment; experiment: ThO (Thiazole Orange) DNA displacement assay; format: binding; conditions: for IC50: read-out: ThO-DNA binding IC50;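 as to all read-outs here: miniaturized displacement of the intercalating dye from unlabeled duplex DNA, used to flag nonspecific DNA binders, chiefly intercalators, groove binders may be missed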
E. coli Endo IV = molecular target: T2, E. coli Endo IV (Escherichia coli, UniProt P0A6C1); experiment: E. coli Endo IV profiling counterscreen; format: biochemical; conditions: read-out: EndoIV IC50;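 also: selectivity counterscreen of candidate APE1 inhibitors against the bacterial endonuclease Endo IV, run in the same assay format as the primary APE1 high-throughput screen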
T2 construct: made in house
Description: In order to screen out nonselective compounds, such as non-specific DNA binders and inhibitors of related enzymes, we used a miniaturized ThO DNA displacement assay and a counterscreen against the bacterial endonuclease E. coli Endo IV, respectively, following the previously published protocols [21].
To probe the selectivity of the candidate APE1 inhibitors, we tested them against E. coli EndoIV [36], employing the same assay as used in the HTS.

[5] = initial quantitative high-throughput screen, read-out: APE1 qHTS IC50
[6] = retest of cherrypicked sample, read-out: APE1 Retest IC50

SMILES	IC50 (APE1 [1]; [5]) [µM]	IC50 (APE1 [1]; [6]) [µM]	Radiotracer Assay (%Activity) (APE1 [2]) [%]	IC50 (APE1 [3]) [µM]	IC50 [4] [µM]	IC50 (E. coli Endo IV) [µM]	ThO assay signal behaviour (autofluorescence interference) [4]	IC50 (APE1 [1]; control on every assay plate, average over screen, read-out: IC50 of intra-plate control titration) [µM]
O=C(/C=C/c1ccc(O)c(O)c1)O[C@H](Cc1ccc(O)c(O)c1)C(=O)O [MLS000697677]	0.1	0.6	38	> 57	> 57	> 57		
O=C(O)c1ccc(-n2cccc2/C=C2/NC(=O)N(c3cccc(Cl)c3)C2=O)cc1 [MLS000621695]	2.8	1.6	6	11.2	15.8	> 57		
O=C1NN(c2ccccc2)C(=O)/C1=C/c1ccc(-c2ccc(Cl)c(C(=O)O)c2)o1 [MLS000682903]	12.6	15.6	37	15.8	> 57	> 57		
O=C(O)c1ccc(N2C(=O)c3cccc4c(C(=O)O)ccc(c34)C2=O)cc1 [MLS000713642]	12.6	7.9	28	15.8	> 57	> 57		
Cc1ccccc1N=C1NC(=O)/C(=C/c2cccn2-c2cccc(C(=O)O)c2)S1 [MLS000704580]	17.8	11.2	7	> 57	> 57	> 57		
CC(=O)[C@]1(O)Cc2c(O)c3c(c(O)c2[C@@H](O[C@H]2C[C@H](N)[C@H](O)[C@H](C)O2)C1)C(=O)c1ccccc1C3=O [NCGC00093976]	19.9	14.1	4.6	3.2		25.1	strong dose-dependent fluorescence signal increase	
N#C/C(=C/c1cccn1-c1cccc(C(=O)O)c1)c1ccc(Cl)cc1 [MLS000621431]	11.2	5	44	> 57	> 57	> 57		
O=C(O)C[C@@H]1C(=O)O[C@@H]2C(COC(=O)c3cc(O)c(O)c(O)c3)O[C@@H](OC(=O)c3cc(O)c(O)c(O)c3)[C@@H](OC(=O)c3cc(O)c(O)c4c3[C@H]1[C@H](O)C(=O)O4)[C@H]2OC(=O)c1cc(O)c(O)c(O)c1 (stereo partly shown) [MLS000697665]	0.01	0.01	29	14.1	0.4	> 57		
O=C(O)c1cccc(-c2ccc(/C=c3/sc4nc5ccccc5n4c3=O)o2)c1 [MLS000777053]	10	5	23	7.9	6.3	> 57		
CC(=O)OCC1=C(C(=O)[O-])N2C(=O)C(NC(=O)CCCC(N)C(=O)O)C2SC1.[Na+] (stereo not shown) [NCGC00094863]	22.4		41	> 57	> 57	> 57		
O=C(CCc1n[nH]c(=O)[nH]c1=O)N/N=C/c1ccco1 [MLS000685551]	19.9	12.6	33	> 57	> 57	> 57		
Cc1ccc(NC(=O)CN2C(=O)S/C(=C/c3ccc(-c4cc(C(=O)O)ccc4C)o3)C2=O)cc1C [MLS000530771]	19.9	7.1	21	10	> 57	> 57		
Cc1cc(/C=C2\C(=O)NC(=O)N(Cc3ccccc3Cl)C2=O)c(C)n1-c1ccc(C(=O)O)cc1 [MLS000627094]	11.2	12.6	2	15.8	> 57	> 57		
N#Cc1ccccc1CN1C(=O)S/C(=C/c2cccn2-c2cccc(C(=O)O)c2)C1=O [MLS000539676]	19.9	14.1	25	> 57	> 57	> 57		
O=[N+]([O-])c1ccc(Cl)c(-c2ccc(/C=N/n3cnnc3)o2)c1 [MLS001194618]					> 57	> 57		
O=C(/C=C/c1ccco1)OCC(=O)N1CCCCC1 [MLS002246602]					> 57	> 57		
NS(=O)(=O)c1ccc(CCNC(=O)c2ccc3nccnc3c2)cc1 [MLS002252586]					> 57	> 57		
Cc1ccc2c(=O)cc(C(=O)NCCc3ccc(S(N)(=O)=O)cc3)oc2c1 [MLS001216111]					36.3	> 57		
O=C(COc1ccccc1[N+](=O)[O-])Nc1cccc(S(=O)(=O)NC2=NCCCCC2)c1 [MLS001078387]					> 57	> 57		
O=C(COC(=O)C1CC(=O)N(Cc2ccco2)C1)c1ccc(OC(=O)c2ccccc2)cc1 (stereo not shown) [MLS000548444]			35		> 57	10		
CN(CC(=O)Nc1cccc(F)c1)C(=O)c1cc(-c2ccco2)nc2ccccc12 [MLS001156482]					40.8	> 57		

SMILES	IC50 (APE1 [1]; [5]) [µM]	IC50 (APE1 [1]; [6]) [µM]	Radiotracer Assay (%Activity) (APE1 [2]) [%]	IC50 (APE1 [3]) [µM]	IC50 [4] [µM]	IC50 (E. coli Endo IV) [µM]	ThO assay signal behaviour (autofluorescence interference) [4]	IC50 (APE1 [1]; control on every assay plate, average over screen, read-out: IC50 of intra-plate control titration) [µM]
COC(=O)c1c(C)[nH]c(C(=O)COc2ccc3ccc(=O)oc3c2)c1C [MLS002156353]						> 57		
O=C(O)c1cc[c]([Sb](=[O])([OH])[OH])cc1[N+](=O)[O-] [NSC-13755, reference compound]								0.035
COc1ccc(S(=O)(=O)N2CCN(C(=O)C3COc4ccccc4O3)CC2)cc1 (stereo not shown) [MLS002159357]					> 57	> 57		
O=C(O)C1C2C=CC(C2)C1C(=O)Nc1ccccc1Br (stereo not shown) [MLS001008562]					> 57	> 57		
O=C(COC(=O)/C=C/c1ccco1)NCc1ccco1 [MLS001004396]					> 57	> 57		
Cn1c(SCC(=O)Nc2nncs2)nnc1C1CC1 [MLS001060429]					> 57	> 57		
COc1ccccc1NC(=O)COC(=O)c1cc2c(s1)CCC2 [MLS002161511]					> 57	18.2		
O=C(COC(=O)/C=C/c1ccco1)NCc1ccc2c(c1)OCO2 [MLS001006993]					> 57	> 57		
COc1cc(/C=C(\C#N)C(=O)Nc2cccc(C(=O)O)c2)ccc1OCc1ccc(Cl)cc1 [MLS001172702]					> 57	> 57		
CNS(=O)(=O)c1cccc(C(=O)OCC(=O)c2ccc[nH]2)c1 [MLS002163823]					> 57	> 57		
C=CCn1c(SCC(=O)Nc2sc3c(c2C#N)CCC(C)C3)nc2cc(C(=O)O)ccc2c1=O (stereo not shown) [MLS002251505]					> 57	> 57		
COc1ccc(CNC(=O)COC(=O)c2ccc(S(=O)(=O)NCc3ccco3)cc2)cc1 [MLS002252767]					> 57	> 57		
O=C(O)Cc1ccc(S(=O)(=O)N2CCCC2)s1 [MLS002245326]					> 57	> 57		
CC1(C)C(=O)CC[C@]2(C)C3C(=O)C=C4[C@H]5C[C@@](C)(C(=O)O)CC[C@]5(C)CC[C@]4(C)[C@]3(C)CC[C@@H]12 (stereo partly shown) [MLS000697684]					> 57	> 57		
Cc1ccc(C)c(OCCn2ccnc2)c1 [MLS000974607]					> 57	> 57		
N[C@H](Cc1ccc(O)c(O)c1)C(=O)O [NCGC00093869]	1	3.5	11.3		> 57	> 57		
O=C(Cc1ccc(S(=O)(=O)N2CCOCC2)s1)Nc1nc2c(s1)CCCC2 [MLS000567201]					15.8	> 57		
CC(C)OCCOc1ccc2oc(-c3ccco3)cc(=O)c2c1 [MLS001163009]					> 57	> 57		
O=C(CCC(=O)c1ccc(Oc2ccccc2)cc1)Nc1ccc(C(=O)O)cc1 [MLS001001328]					> 57	> 57		
Cc1c(NS(=O)(=O)c2cc(C(=O)NCCN(C)C)ccc2Cl)c(=O)n(-c2ccccc2)n1C [MLS001175210]					> 57	> 57		
